Results from patent US6905834B1, “Bioluminescent bioreporter integrated circuit detection methods” (UT-Battelle, LLC, priority 1997, dated 2005).
Where two headings read alike, the source gives them in different places.

Tests used:
HK44 cells = settings: liquid assays; cited from earlier work
[1] = Adsorption isotherms on calcium alginate; type: physicochemical
Protocol: Tracer concentrations were measured using a Waters ion-chromatography system with a series 510 HPLC pump, IC-PAK anion exchange column, and 431 conductance detector (Waters, Cam-bridge, MA) or monitored continuously using fluorescence.

[2] = Model parameters for naphthalene (diffusion, equilibrium constant); type: physicochemical
Text: Biot numbers were on the order of 100. Effectiveness factor calculations using the best-fit first-order reaction rate constant indicate that the beads were limited by the reaction rate and not by internal mass transfer resistance. The good fit obtained using the analytical solution, wherein external and internal mass transfer was assumed negligible, also support the conclusion that mass transfer effects were minimal. The model predicts that the salicylate distribution reaches a steady state within an alginate bead (99% of final) in about 7 minutes. Even assuming that the diffusion coefficient was reduced by an order of magnitude in the alginate matrix, a steady state was reached within 15 min. […] Cell volume estimated at less than 1% probably had little effect on diffusion. The model also predicted that liquid mass transfer resistance would have little effect on reaching steady state. […] A positive 50% error in the measured adsorption coefficient would result in doubling the time required to reach steady state. […] Model parameters have been measured (liquid mass transfer coefficient, pellet void volume, and adsorption coefficients), reported, and estimated. Respective coefficients for naphthalene were […], 9.0×10^−8 cm^2 s^−1 and 8.4 cm^2 s mol^−1 for liquid diffusion, solid diffusion, and Langmuir equilibrium constants. Companion free cell studies are needed to further aid evaluation of free and immobilized kinetics and response.

P. fluorescens HK44 = type: cell-based, Pseudomonas fluorescens
Text: A previously developed PBR system with on-line instrumentation (Webb, 1992; Webb et al., 1991) was used to measure bacterial degradative and bioluminescent activity under conditions mimicking those of the subsurface. The reactor design is detailed in FIG. 21. The PBR was temperature controlled and fitted with metal frits welded to the inlet and outlet to retain and distribute feed to immobilized cultures. An additional inter-cavity insert allowed the installation of filters (e.g., […] inorganic and polymeric) between the packed bed and outlet frit that filtered the effluent for automatic injection into the on-line high-performance liquid chromatography (HPLC) and that produced a uniform resistance to flow that improved the overall distribution to the reactor (Webb, 1992). […] HPLC pumps supplied media to each reactor from pressurized feed reservoirs. All nutrients, including oxygen, entered the reactor dissolved in the liquid phase. Naphthalene and salicylate were detected with an on-line HPLC using a Vydac TP20154 column (Sep/A/Ra/Tions Group, Hesperia, Calif.) with a FL-4 dual-monochromator fluorescent detector (Perkin-Elmer, Norwalk, Conn.). Respective excitation and emission wavelengths for salicylate detection were 290 and 360 nm. The reactor was fitted with an on-line light detector for monitoring bioluminescent activity (Dunbar, 1992) consisting of a glued fiber bundle (Ensign Bickford Optics, Simsbury, Conn.) placed approximately 2.5 cm from the entrance of the reactor. An Oriel Inc. (Stratford, Conn.) 7070 photomultiplier detection system using a Model 77348 photomultiplier tube (radiant sensitivity of […] near 500 nm) were employed.
Mineral salts media (pH 7.2) consisting of MgSO4 7H2O ([…]), NH4NO3 ([…]), trizma™ base ([…]), MgO (1.0×10^−3 g/l), CaCl2 (2.9×10^−4 g/l), FeCl3.6H2O (5.4×10^−4 g/l), ZnSO4.7H2O (1.4×10^−4 g/l), CuSO4 (2.5×10^−5 g/l), […] (6.2×10^−6 g/l), and Na2MoO4.H2O (4.9×10^−5 g/l) were supplied to the reactor with an appropriate carbon source for degradation and bioluminescence studies. Kinetic bacterial studies were phosphate limited and maintained aerobic by con-trolled pressurization of feeds and the reactor.
The HK44 was prepared for immobilization by adding freshly thawed inoculum (frozen at −70° C. until use) to 100 mL of YEPG media which contained glucose (1.0 g/l), polypeptone (2.0 g/l), yeast extract (0.2 g/l), NH4NO3 (0.2 g/l), and tetracycline (14 mg/l). The culture was shaken for 15 hours at 25° C. and then centrifuged at 8000 rpm for 10 minutes. The pellet was then washed with 0.9% NaCl solution three times before immobilization. The concentration of HK44 was enumerated by measuring optical density at 546 nm. The HK44 was immobilized by suspending bacteria in 0.9% NaCl solution and mixing with a low-viscosity alginate (28 g/L) and NaCl (9 g/L) solution in a ratio of 1:2 by volume. Beads were formed by controlled dropwise addition to 0.1 M CaCl2 solution by a syringe needle installed in an air jet controlled by a precision regulator (Porter Instrument Co., Hatfield, Pa.) and a piece of 0.003-in. (i.d.) tubing. Beads diameters were measured using gentle wet sieving. Alginate beads were dissolved in 50 mM sodium hexametaphosphate. […]

P. putida B2 [3] = experiment: Assays of growing cells of tod-lux reporter P. putida B2; type: cell-based, Pseudomonas putida; settings: for bioluminescent response: 90 minutes exposure
Protocol: (§1) In the batch and reactor studies, bioluminescence was measured using a photomultiplier, which converts the light to an electric current. The photomultiplier in the resting cell assays and the reactor system was connected to a computer and bioluminescence as namps current was recorded.
Assays of growing cells were conducted as described by Heitzer et al. (1992). An overnight culture from a frozen stock of P. putida B2 was prepared in a 250-ml Erlenmeyer flask containing 100 ml LB and 50 μg ml^−1 kanamycin. A subculture was prepared and cells were used in mid-log phase (OD546 of 0.45-0.48). A 2.5-ml aliquot was added to 2.5 ml mineral salts medium (MSM) containing 0-50 mg L^−1 toluene or 10-100 μl of JP4 jet fuel-saturated MSM. The concentration of toluene in water saturated with JP4 jet fuel is approximately 8 mg L^−1 (Smith et al., 1981). Bioluminescence was measured every 30 min.

P. putida B2 [4] = experiment: Resting cell assays of P. putida B2, single and multiple toluene exposures; type: cell-based, Pseudomonas putida; settings: 10 mg/L toluene; for Bioluminescent response rate, Multiple Exposure Vial: single vial with multiple additions; for Bioluminescent response rate, Single Exposure Vials: new vial previously unexposed
Protocol: as §1
Cells for resting cell assays were grown on MSM supplemented with 2.7 g L^−1 succinate. A culture of P. putida B2 was harvested at on OD546 of approximately 0.8. The cells were centrifuged at 15000×g for 10 min, and resuspended in MSM to OD546 of 0.6 four milliliters of culture were added to each of six 26-ml vials with Mininert valves (Dynatech, Chantilly, Va.) with stir bars. One vial was used for multiple toluene exposures, while the remainder were used for single exposures. The vials were magnetically stirred in a light-tight sampling cell. Toluene-saturated MSM and MSM alone were added to yield an OD546 of 0.47, and 10 mg L^−1 toluene was injected six times over a 130-h period of the multiple-exposure vial. At the same time points, a single-exposure vial was injected with 10 mg L^−1 toluene. The light response was recorded every 3 min with a photomultiplier connected to a data acquisition computer.

P. putida TVA8 = type: cell-based, Pseudomonas putida
P. putida B2 [5] = experiment: Immobilized cell reactor (DVR) with alginate-encapsulated P. putida B2: bioluminescence and TCE co-metabolism; type: cell-based, Pseudomonas putida
Protocol: as §1
P. putida B2 was encapsulated in alginate beads for the immobilized cell reactor system. Cells were grown in 1 L LB to an OD546 of 1.2 and were centrifuged at 5500×g for 10 min, washed three times in 0.9% NaCl and suspended in 40 ml 0.9% NaCl. The cell suspension was added to 80 ml of an alginic acid solution (28 g L^−1 low viscosity alginate, 0.9% NaCl) (Webb, 1992). The cell-alginate suspension was placed in a 60-ml syringe, forced through a 25-gauge needle, and allowed to drop into a 0.5 M CaCl2 Solution. The alginate was cross-linked by the Ca^2+ ions, thus encapsulating the cells. The cells were subsequently placed in a fresh solution of 0.1 M CaCl2 and allowed to sit for 30 min prior to use.
A differential volume reactor (DVR) was used to simulate a section of an ideal plug flow reactor. Influent to the reactor was dispersed through a porous metal frit to provide a flat velocity profile to the bed. The reactor measured 5.0 cm i.d.×5.0 cm long. A complete description of this reactor can be found in Webb et al. (1991). In this investigation, a system was designed incorporating the DVR as illustrated in FIG. 17. The system was equipped with three Millipore (Bedford, Mass.) stainless steel substrate containers rated to 690 kPa. The feed from the substrate vessels to the reactor inlet was controlled by two Filson (Middleton, Wis.) 301 HPLC pumps. A flow rate of 0.4 ml min^−1 was maintained. The substrate vessels were pressurized with oxygen to provide the system with an electron acceptor. All medium vessels contained trace mineral medium (Lackey et al., 1993) with the addition of 3 mg L^−1 pyruvic acid and a 0.1 M solution of Tris-base (pH 7.0). phosphate buffers were not used since phosphate ions complex with Ca^2+ ions and disrupt with alginate crosslinking. In addition to this medium, two of the vessels contained either TCE or toluene. The inlet concentration of toluene was altered by using square-wave perturbations with 20-h cycles (10 h with toluene, 10 h without toluene) using an HPLC pump controlled by a timer. During feed portions of the cycle, 10 mg L^−1 toluene was introduced into the inlet of the reactor. The inlet TCE concentration was constant at 20 mg L^−1.
Analysis of TCE in the reactor effluent was performed online using a stripping column (12.5 cm length and 0.4 cm inner diameter) packed with 3-mm glass beads to provide adequate surface area for TCE separation. TCE was stripped with helium, the GC carrier gas. The stripping column outlet was attached to a gas chromatograph (GC, Hewlett Packard (Wilmington, Del.) (HP) 5890 Series II) with an electron capture detector by a heated sample line maintained at 75° C. Automatic injections (25 μl) were made by a computerized control process (HP Chem Station software). The GC was equipped with a cross-linked methyl silicone capillary column (length 30 n, i.d 0.2 mm, 0.33-μm film thickness) while the oven was operated isothermally at 60° C. Other operating parameters included an injection temperature of 150° C., detector temperature of 200° C. and a split ratio of 10:1. This system was equipped with a bypass line around the reactor in order to calibrate the stripping column.
Toluene samples were removed at 0.5-ml aliquots from the effluent sampling port (FIG. 17) and injected into 1.5 ml sample vials. Headspace analysis was performed using a Shimadzu (Columbia, Md.) GC-9A gas chromatograph equipped with a 2.44-m, 3.2-mm diameter Poropak N packed column and a flame ionization detector. The isothermal temperature of the oven was 210° C., and both the detector and injector temperatures were 220° C.

Compound: c1ccc2ccccc2c1 [naphthalene]
- linear luminescence response, lower concentration (HK44 cells): 0.72 µg/L
- linear luminescence response, upper concentration (HK44 cells): 3.25 mg/L
- adsorption on calcium alginate (in words) [1]: adsorbed linearly
- adsorption isotherm on calcium alginate, dimensionless ratio ([1]; linear isotherm): 8.4
- Langmuir equilibrium constant [2]: 8.4 cm^2 s mol^−1
- liquid diffusion coefficient [2]: 9.0×10^6 cm^2 s^−1
- solid diffusion coefficient [2]: 9.0×10^−8 cm^2 s^−1
- Bioluminescence ± σ (P. fluorescens HK44; experiment 5b, biomass […] 10^9 cells/mL, sodium salicylate 2.5 mg/L plus naphthalene 8.0, τ 15 min): 4.79 ± 3.18 × 10^−1 nA
- steady-state light response to naphthalene relative to response to salicylate (P. fluorescens HK44; identical conditions, alginate-immobilized HK44): approximately two orders of magnitudes greater

Compound: Cc1ccccc1 [Toluene, toluene]
- bioluminescent response (in words) (P. putida B2 [3]; 0 and 0.01 mg/l toluene): not a significant bioluminescent response
- bioluminescent response (P. putida B2 [3]; 0.1 mg/l toluene): 2.4 namp
- bioluminescent response (P. putida B2 [3]; 10, 20 and 50 mg/l toluene): approximately 90 namp
- maximum bioluminescent response (P. putida B2 [4]; same for single and multiple exposures): 573±127 namp
- Bioluminescent response rate, Multiple Exposure Vial (P. putida B2 [4]; time point 1): 95 NAMP/HR
- Bioluminescent response rate, Single Exposure Vials (P. putida B2 [4]; time point 2): 137 NAMP/HR
- Bioluminescent response rate, Multiple Exposure Vial (P. putida B2 [4]; time point 2): 321 NAMP/HR
- Bioluminescent response rate, Single Exposure Vials (P. putida B2 [4]; time point 3): 67 NAMP/HR
- Bioluminescent response rate, Multiple Exposure Vial (P. putida B2 [4]; time point 3): 642 NAMP/HR
- Bioluminescent response rate, Single Exposure Vials (P. putida B2 [4]; time point 4): 60 NAMP/HR
- Bioluminescent response rate, Multiple Exposure Vial (P. putida B2 [4]; time point 4): 768 NAMP/HR
- Bioluminescent response rate, Single Exposure Vials (P. putida B2 [4]; time point 5): 60 NAMP/HR
- Bioluminescent response rate, Multiple Exposure Vial (P. putida B2 [4]; time point 5): 737 NAMP/HR
- Bioluminescent response rate, Single Exposure Vials (P. putida B2 [4]; time point 6): 49 NAMP/HR
- Bioluminescent response rate, Multiple Exposure Vial (P. putida B2 [4]; time point 6): 973 NAMP/HR
- light response (in words) (P. putida TVA8; approximately 50 mg/L (JP-4 approx. 2%), 2 h): significant light response
- bioluminescence relative to background bioluminescence level (P. putida TVA8; at 50 μg toluene/L): 80 fold
- Specific Bioluminescence (P. putida TVA8; exposure 2 hours, approximately 50 mg/L, normalized to final OD546, average ± SD of three replicates): 291 ± 6 namp/OD
- Specific Bioluminescence (P. putida TVA8; toluene 50 mg/L, 2 h exposure): 290 namp/OD546
- maximum light response (P. putida B2 [5]; 10 mg/L toluene square-wave feed, 20 mg/L TCE): 43.4±6.8 namp
- rate of light response decrease (P. putida B2 [5]; after the toluene feed was stopped): 3.4±0.8 namp/hr
- rate of light emission increase (P. putida B2 [5]; during toluene feed cycle, 10 mg/L toluene, 20 mg/L TCE): 16.3±1.2 namp/hr
- effluent toluene concentration (P. putida B2 [5]; inlet toluene 10 mg/L): 5.8 ± 0.1 mg/L
- toluene removal (P. putida B2 [5]; inlet toluene 10 mg/L): 50%
- ratio toluene degraded to TCE degraded (P. putida B2 [5]; steady state in DVR): 1.7 μmol toluene degraded/μmol TCE degraded
